The subject of data set [1] is endometriosis. To be noted: rodents and monkeys; cited from earlier work.
Data set [2] has as its system endometriotic tissue. Nature of the data set: Surgically induced endometriosis (autotransplanted endometrial fragments) in cynomolgus monkeys, laparoscopy. The class given is in vivo, Macaca fascicularis. To be noted: for Endometriotic lesion diameter: control 11.4±1.6. An excerpt:
Numerous animal models of endometriosis have been developed involving rabbits (Rock, J A et al., Intraocular endometrium in the rabbit as a model for endometriosis, Fertil. Steril. 59:232-35 [1993]), rodents (Sakura, Y et al., Histological studies on the therapeutic effect of sustained-release microspheres of a potent LHRH agonist (leuprorelin acetate) in an experimental endometriosis model in rats, Endocrinol. Jpn. 37:719-729 [1990]; Rajkumar, K et al., The rat as an animal model for endometriosis to examine recurrence of ectopic endometrial tissue after regression, Fertil. Steril. 53:921-25 [1990]; Sudo, K et al., Effects of TAP-144-SR, a sustained-release formulation of a potent GnRH agonist, on experimental endometriosis in the rat, Endocrinol. Jpn. […] Gynecol. […] Steril. […] An. Sci. 33 :P15 [1994]; Cummings, A M and Metcalf, J L, Induction of endometriosis in mice: a new model sensitive to estrogen, Reprod. Toxicol. 9:233-38 [1995]; Cummings, A M et al., Promotion of endometriosis by 2,3,7,8-tetrachlorodibenzo-p-dioxin in rats and mice: time-dose dependence and species comparison, Toxicol. Appl. Pharmacol. 138:131-39 [1996]; Foster, W G et al., Morphologic characteristics of endometriosis in the mouse model: application to toxicology, Can. J. Physiol. Pharmacol. 75:1188-96 [1997]; Aoki, D et al., Successful heterotransplantation of human endometrium in SCID mice, Obstet. Gynecol. 83:220-28 [1994]; Bruner, K L et al., Suppression of matrix metalloproteinases inhibits establishment of ectopic lesions by human endometrium in nude mice, J. Clin. Invest. 99:2851-57 [1997]), and non-human primates (Schenken, R S et al., Etiology of infertility in monkeys with endometriosis: luteinized unruptured follicles, luteal phase defects, pelvic adhesions, and spontaneous abortions, Fertil. Steril. 41:122-30 [1984]; Rier, S E et al., Endometriosis in rhesus monkeys (Macaca mulatta) following chronic exposure to tetrachlorodibenzo-p-dioxin, Fund. Appl. Toxicol. 21:433-41 [1993]; D'Hooghe, T D et al., Development of a model of retrograde menstruation in baboons (Papio anubis), Fertil. Steril. 62:635-38 [1994]). […] Therefore, a non-human primate model was selected, because monkeys and baboons spontaneously develop endometriosis, the pathophysiology of the disease resembles humans and abundant tissue can be obtained for study purposes. In particular, nulliparous female cynomolgus monkeys (Macaca fascicularis) were the animals chosen.
The effects of subchronic exposure to an AhR binding ligand was examined in a non-human primate model. Endometrial fragments were surgically autotransplanted to the pelvic cavity of nulliparous cynomolgus monkeys (Macaca fascicularis, n=23). Briefly, each monkey's own endometrial tissue was obtained during a laparotomy in which the body of the uterus was opened in the anterior midline. A strip of endometrium was removed by careful dissection and divided into a number of equal pieces, one of which was used for histopathology to confirm the presence of both endometrial epithelium and stroma. […]
The monkeys were divided into 4 treatment groups and dosed five days a week with gelatin capsules containing 0, 1, 5 or 25 ng/kg body mass of AhR binding ligand 2,3,7,8-tetrachlorodibenzo-p-dioxin (TCDD), mixed with glucose. Endometriotic implant survival and diameter were monitored by laparoscopy at intervals of one, three, six and 12 months.

Data set [3] has as its target T1, aryl hydrocarbon receptor (Homo sapiens, UniProt P35869).
T1 sequence (P35869 11-848): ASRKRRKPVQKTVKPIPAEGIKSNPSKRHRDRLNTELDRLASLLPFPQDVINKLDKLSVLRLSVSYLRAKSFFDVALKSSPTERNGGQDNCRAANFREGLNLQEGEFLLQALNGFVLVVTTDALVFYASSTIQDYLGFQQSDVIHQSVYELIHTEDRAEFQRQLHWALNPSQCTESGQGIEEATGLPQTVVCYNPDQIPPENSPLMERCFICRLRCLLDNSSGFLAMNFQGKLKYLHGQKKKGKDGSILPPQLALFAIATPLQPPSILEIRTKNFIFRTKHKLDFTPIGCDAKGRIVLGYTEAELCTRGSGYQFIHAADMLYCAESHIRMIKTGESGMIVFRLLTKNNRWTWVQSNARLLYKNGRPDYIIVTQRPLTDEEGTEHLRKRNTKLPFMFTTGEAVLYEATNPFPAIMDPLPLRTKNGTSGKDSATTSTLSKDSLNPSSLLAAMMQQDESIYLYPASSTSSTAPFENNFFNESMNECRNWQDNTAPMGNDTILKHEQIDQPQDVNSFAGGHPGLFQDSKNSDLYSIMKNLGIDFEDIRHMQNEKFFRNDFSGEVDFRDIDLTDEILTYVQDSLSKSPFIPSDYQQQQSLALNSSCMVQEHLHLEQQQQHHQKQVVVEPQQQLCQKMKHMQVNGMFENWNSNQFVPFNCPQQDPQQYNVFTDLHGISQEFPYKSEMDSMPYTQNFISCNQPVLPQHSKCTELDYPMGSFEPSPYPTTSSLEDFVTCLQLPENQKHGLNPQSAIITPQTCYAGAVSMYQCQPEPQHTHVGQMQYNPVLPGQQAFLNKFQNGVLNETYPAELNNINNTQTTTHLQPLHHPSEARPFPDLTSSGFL
The settings on record: in culture; cited from earlier work.

Data set [4] concerns estrogen metabolites. The settings on record: oral administration, women; cited from earlier work.
Data set [5] concerns uterus. To be noted: animal experiment; cited from earlier work.

As to `Clc1cc2c(cc1Cl)Oc1cc(Cl)c(Cl)cc1O2` [TCDD, 2,3,7,8-tetrachlorodibenzo-p-dioxin], in data set [1], the Effect on endometriosis entry was “promoted endometriosis”. Besides, the Endometriotic lesion diameter in data set [2] (0.71 ng/kg/day TCDD, oral gelatin capsules) was found to be 4.2±0.9 mm; in data set [2] (17.86 ng/kg/day TCDD for one year, oral), 14.5±0.2 mm. Further, the “Endometriotic lesion survival rate” value in data set [2] (0.71 ng/kg/day TCDD, oral, control 16%) came out at 20%; in data set [2] (3.57 ng/kg/day TCDD for one year, oral, control 16.0%), 26.7%; in data set [2] (17.86 ng/kg/day TCDD for one year, oral, control 16.0%), 33.3%.
Take `N[C@@H](Cc1c[nH]c2ccccc12)C(=O)O` [tryptophan]: in data set [3], the “Binding to and activation of aryl hydrocarbon receptor” value was “bind to and activate”.
As to `OCc1c[nH]c2ccccc12` [indole-3-carbinol], the “Levels of estrogen metabolites” value in data set [4] was “reduce levels of estrogen metabolites”.
For the compound `NCCc1c[nH]c2ccccc12` [tryptamine], the “Binding to and activation of aryl hydrocarbon receptor” value in data set [3] was “bind to and activate”.
Regarding `Fc1ccc2[nH]cc(Cc3c[nH]c4ccccc34)c2c1` [5-fluoro-diindolylmethane], the “Uterine wet weight as a percentage of body weight” value in data set [5] was “increase”.
